Reference: patent US8552002B2 (Novartis AG, priority 2004, dated 2013)

Legend:
Assay type in all cases: biochemical
PDGFRβ = PDGFRβ (Homo sapiens, UniProt P09619); experiment: Inhibition of PDGFRβ
Method: Compounds selectively inhibiting the proliferation of these BCR-Abl transformed cells are tested for anti-proliferative activity on Ba/F3 cells expressing either wild type or the mutant forms of Bcr-abl. In addition, compounds are assayed to measure their capacity to inhibit FGFR35 (in an enzyme and cellular assay), FLT3, PDGFRβ, trkB, c-SRC, BMX, SGK, Tie2, Lck, JNK2α2, MKK4, c-RAF, MKK6, SAPK2α and SAPK2β kinases.

FGFR35 = FGFR35 (Homo sapiens, UniProt P22607); experiment: FGFR35 (enzymatic assay), HTRF; set-up: purchased Upstate; conditions: purified FGFR35, 3 μM ATP; read-out: IC50 for the FGFR35 enzyme assay
Chain of FGFR35 (P22607 23-806): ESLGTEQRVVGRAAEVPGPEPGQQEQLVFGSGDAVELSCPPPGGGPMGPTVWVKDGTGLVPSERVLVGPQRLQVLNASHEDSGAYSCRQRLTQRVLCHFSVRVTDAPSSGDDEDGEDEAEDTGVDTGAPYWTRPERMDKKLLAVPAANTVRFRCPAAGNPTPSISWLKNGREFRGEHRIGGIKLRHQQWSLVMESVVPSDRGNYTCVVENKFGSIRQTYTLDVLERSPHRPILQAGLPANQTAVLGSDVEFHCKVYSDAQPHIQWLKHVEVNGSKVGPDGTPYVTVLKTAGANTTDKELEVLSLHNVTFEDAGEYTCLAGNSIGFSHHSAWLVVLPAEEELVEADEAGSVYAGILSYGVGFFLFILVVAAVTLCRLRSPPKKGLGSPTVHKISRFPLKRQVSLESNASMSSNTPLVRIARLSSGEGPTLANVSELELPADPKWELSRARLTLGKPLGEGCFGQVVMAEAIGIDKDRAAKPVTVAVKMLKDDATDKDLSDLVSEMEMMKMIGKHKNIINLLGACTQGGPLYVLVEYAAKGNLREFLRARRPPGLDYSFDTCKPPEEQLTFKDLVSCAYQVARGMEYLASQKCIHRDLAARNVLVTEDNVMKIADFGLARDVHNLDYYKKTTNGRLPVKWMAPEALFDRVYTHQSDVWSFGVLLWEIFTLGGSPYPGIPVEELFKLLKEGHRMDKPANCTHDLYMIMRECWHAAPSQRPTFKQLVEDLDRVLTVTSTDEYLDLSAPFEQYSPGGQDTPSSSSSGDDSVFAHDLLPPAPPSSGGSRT
Method: Kinase activity assay with purified FGFR35 (Upstate) is carried out in a final volume of 10 μL containing 0.25 μg/mL of enzyme in kinase buffer (30 mM Tris-HCl pH7.5, 15 mM MgCl2, 4.5 mM MnCl2, 15 μM Na3VO4 and 50 μg/mL BSA), and substrates (5 μg/mL biotin-poly-EY(Glu, Tyr) (CIS-US, Inc.) and 3 μM ATP). Two solutions are made: the first solution of 5 μl contains the FGFR35 enzyme in kinase buffer was first dispensed into 384—format ProxiPlate® (Perkin-Elmer) followed by adding 50 nL of compounds dissolved in DMSO, then 5 μl of second solution contains the substrate (poly-EY) and ATP in kinase buffer was added to each wells. The reactions are incubated at room temperature for one hour, stopped by adding 10 μL of HTRF detection mixture, which contains 30 mM Tris-HCl pH7.5, 0.5 M KF, 50 mM ETDA, 0.2 mg/mL BSA, 15 μg/mL streptavidin-XL665 (CIS-US, Inc.) and 150 ng/mL cryptate conjugated anti-phosphotyrosine antibody (CIS-US, Inc.). After one hour of room temperature incubation to allow for streptavidin-biotin interaction, time resolved florescent signals are read on Analyst GT (Molecular Devices Corp.). IC50 values are calculated by linear regression analysis of the percentage inhibition of each compound at 12 concentrations (1:3 dilution from 50 μM to 0.28 nM).

wild-type Abl = biological target: T1, wild-type Abl (Homo sapiens, UniProt P00519); experiment: Upstate KinaseProfiler radio-enzymatic filter binding assay; conditions: read-out: percentage inhibition of wild-type Abl
T1 construct: purchased Upstate (KinaseProfiler panel)
Method: (§1) Compounds of the invention are assessed for their ability to inhibit individual members of a panel of kinases (a partial, non-limiting list of kinases includes: Abl, BCR-Abl, BMX, FGFR35, Lck, JNK1, JNK2, CSK, RAF, MKK6 and P38). The compounds are tested in duplicates at a final concentration of 10 μM following this generic protocol. Note that the kinase buffer composition and the substrates vary for the different kinases included in the “Upstate KinaseProfiler™” panel. Kinase buffer (2.5 μL, 10×—containing MnCl2 when required), active kinase (0.001-0.01 Units; 2.5 μL), specific or Poly(Glu4-Tyr) peptide (5-500 μM or 0.01 mg/ml) in kinase buffer and kinase buffer (50 μM; 5 μL) are mixed in an eppendorf on ice. A Mg/ATP mix (10 μL; 67.5 (or 33.75) mM MgCl2, 450 (or 225) μM ATP and 1 μCi/μl [γ-^32P]-ATP (3000 Ci/mmol)) is added and the reaction is incubated at about 30° C. for about 10 minutes. The reaction mixture is spotted (20 μL) onto a 2 cm×2 cm P81 (phosphocellulose, for positively charged peptide substrates) or Whatman No. 1 (for Poly (Glu4-Tyr) peptide substrate) paper square. The assay squares are washed 4 times, for 5 minutes each, with 0.75% phosphoric acid and washed once with acetone for 5 minutes. The assay squares are transferred to a scintillation vial, 5 ml scintillation cocktail are added and ^32P incorporation (cpm) to the peptide substrate is quantified with a Beckman scintillation counter. Percentage inhibition is calculated for each reaction.

p70S6K = biological target: T2, p70S6K (Homo sapiens, UniProt P23443); experiment: as above; conditions: read-out: percentage inhibition of p70S6K
T2 construct: purchased Upstate (KinaseProfiler panel)
Method: as §1

ROS = biological target: T3, ROS (Homo sapiens, UniProt P08922); experiment: as above; conditions: read-out: percentage inhibition of ROS
T3 construct: purchased Upstate (KinaseProfiler panel)
Method: as §1

MKK6 = biological target: T4, MKK6 (Homo sapiens, UniProt P52564); experiment: as above; conditions: read-out: percentage inhibition of MKK6
T4 construct: purchased Upstate (KinaseProfiler panel)
T4 sequence (P52564 whole entry, species assumed): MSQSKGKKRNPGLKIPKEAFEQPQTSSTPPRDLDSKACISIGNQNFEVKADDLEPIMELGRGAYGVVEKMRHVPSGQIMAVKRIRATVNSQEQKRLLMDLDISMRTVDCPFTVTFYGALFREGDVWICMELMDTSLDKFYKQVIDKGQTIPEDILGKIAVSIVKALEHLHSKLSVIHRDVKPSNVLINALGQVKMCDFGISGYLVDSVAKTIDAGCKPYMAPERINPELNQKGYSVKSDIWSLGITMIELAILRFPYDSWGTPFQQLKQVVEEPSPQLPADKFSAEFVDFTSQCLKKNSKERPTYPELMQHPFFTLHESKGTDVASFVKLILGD
Method: as §1

lck = biological target: T5, lck (Homo sapiens, UniProt P06239); experiment: as above; conditions: read-out: percentage inhibition of lck
T5 construct: purchased Upstate (KinaseProfiler panel)
Method: as §1

SAPK2α = biological target: T6, SAPK2α (Homo sapiens, UniProt Q16539); experiment: as above; conditions: read-out: percentage inhibition of SAPK2α
T6 construct: purchased Upstate (KinaseProfiler panel)
T6 sequence (Q16539 whole entry): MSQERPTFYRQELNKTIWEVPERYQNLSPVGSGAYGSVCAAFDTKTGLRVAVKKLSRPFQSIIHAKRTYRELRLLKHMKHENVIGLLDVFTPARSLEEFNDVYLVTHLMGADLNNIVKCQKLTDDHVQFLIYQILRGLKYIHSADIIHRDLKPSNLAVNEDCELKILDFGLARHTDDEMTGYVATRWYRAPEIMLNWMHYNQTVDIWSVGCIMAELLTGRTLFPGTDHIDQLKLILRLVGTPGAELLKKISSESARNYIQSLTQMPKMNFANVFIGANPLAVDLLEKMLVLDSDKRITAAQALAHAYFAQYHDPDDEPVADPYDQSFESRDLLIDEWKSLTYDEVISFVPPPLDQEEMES
Method: as §1

Tie2 = biological target: T7, Tie2 (Homo sapiens, UniProt Q02763); experiment: as above; conditions: read-out: percentage inhibition of Tie2
T7 construct: purchased Upstate (KinaseProfiler panel)
Method: as §1

CSK = biological target: T8, CSK (Homo sapiens, UniProt P41240); experiment: as above; conditions: read-out: percentage inhibition of CSK
T8 construct: purchased Upstate (KinaseProfiler panel)
T8 sequence (P41240 whole entry, species assumed): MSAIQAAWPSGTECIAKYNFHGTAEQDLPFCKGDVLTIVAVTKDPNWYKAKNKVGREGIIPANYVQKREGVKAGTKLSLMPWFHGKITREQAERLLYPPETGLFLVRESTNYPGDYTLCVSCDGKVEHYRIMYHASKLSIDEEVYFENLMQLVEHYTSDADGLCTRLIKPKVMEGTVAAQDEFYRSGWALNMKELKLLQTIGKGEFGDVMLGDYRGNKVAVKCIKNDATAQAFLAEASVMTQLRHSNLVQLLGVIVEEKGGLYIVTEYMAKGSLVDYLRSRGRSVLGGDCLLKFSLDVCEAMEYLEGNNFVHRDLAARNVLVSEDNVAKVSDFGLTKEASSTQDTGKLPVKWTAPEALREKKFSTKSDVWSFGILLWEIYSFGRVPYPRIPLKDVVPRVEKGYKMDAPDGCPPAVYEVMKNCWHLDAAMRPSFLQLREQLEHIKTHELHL
Method: as §1

SAPK2β = biological target: T9, SAPK2β (Homo sapiens, UniProt Q15759); experiment: as above; conditions: read-out: percentage inhibition of SAPK2β
T9 construct: purchased Upstate (KinaseProfiler panel)
T9 sequence (Q15759 whole entry): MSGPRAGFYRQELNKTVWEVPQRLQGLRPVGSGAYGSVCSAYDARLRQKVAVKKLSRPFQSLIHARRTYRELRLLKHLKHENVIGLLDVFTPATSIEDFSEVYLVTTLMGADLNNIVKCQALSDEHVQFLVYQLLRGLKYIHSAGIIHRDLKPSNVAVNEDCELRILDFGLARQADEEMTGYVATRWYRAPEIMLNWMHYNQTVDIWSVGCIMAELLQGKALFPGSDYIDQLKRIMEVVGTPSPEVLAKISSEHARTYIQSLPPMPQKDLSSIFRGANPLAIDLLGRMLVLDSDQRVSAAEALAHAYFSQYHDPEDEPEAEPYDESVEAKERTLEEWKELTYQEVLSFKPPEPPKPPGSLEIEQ
Method: as §1

c-SRC = biological target: T10, c-SRC (Homo sapiens, UniProt P12931); experiment: as above; conditions: read-out: percentage inhibition of c-SRC
T10 construct: purchased Upstate (KinaseProfiler panel)
Method: as §1

TrkB = biological target: T11, TrkB (Homo sapiens, UniProt Q16620); experiment: as above; conditions: read-out: percentage inhibition of TrkB
T11 construct: purchased Upstate (KinaseProfiler panel)
T11 sequence (Q16620 32-822): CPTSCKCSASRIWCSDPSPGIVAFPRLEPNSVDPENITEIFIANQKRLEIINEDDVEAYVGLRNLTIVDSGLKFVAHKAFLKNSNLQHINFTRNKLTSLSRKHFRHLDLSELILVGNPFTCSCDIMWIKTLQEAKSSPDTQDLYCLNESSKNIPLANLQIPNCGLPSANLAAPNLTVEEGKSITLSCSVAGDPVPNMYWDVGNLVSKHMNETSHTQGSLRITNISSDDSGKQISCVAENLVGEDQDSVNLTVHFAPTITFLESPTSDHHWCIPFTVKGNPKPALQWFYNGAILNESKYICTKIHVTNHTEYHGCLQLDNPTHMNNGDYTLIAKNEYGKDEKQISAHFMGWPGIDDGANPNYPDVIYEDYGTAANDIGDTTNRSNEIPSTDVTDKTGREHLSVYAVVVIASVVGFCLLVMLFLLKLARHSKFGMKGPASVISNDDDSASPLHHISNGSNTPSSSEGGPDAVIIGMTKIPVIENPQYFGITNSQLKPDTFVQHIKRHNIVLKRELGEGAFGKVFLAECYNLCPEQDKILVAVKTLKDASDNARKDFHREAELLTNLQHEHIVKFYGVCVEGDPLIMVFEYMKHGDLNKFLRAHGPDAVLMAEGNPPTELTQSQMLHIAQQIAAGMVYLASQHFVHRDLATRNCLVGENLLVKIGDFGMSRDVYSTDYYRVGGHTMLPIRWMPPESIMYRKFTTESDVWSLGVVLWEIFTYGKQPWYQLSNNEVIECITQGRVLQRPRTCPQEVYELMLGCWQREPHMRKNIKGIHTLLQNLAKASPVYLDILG
Method: as §1

JNK2α2 = biological target: T12, JNK2α2 (Homo sapiens, UniProt P45984); experiment: as above; conditions: read-out: percentage inhibition of JNK2α2
T12 construct: purchased Upstate (KinaseProfiler panel)
T12 sequence (P45984 whole entry): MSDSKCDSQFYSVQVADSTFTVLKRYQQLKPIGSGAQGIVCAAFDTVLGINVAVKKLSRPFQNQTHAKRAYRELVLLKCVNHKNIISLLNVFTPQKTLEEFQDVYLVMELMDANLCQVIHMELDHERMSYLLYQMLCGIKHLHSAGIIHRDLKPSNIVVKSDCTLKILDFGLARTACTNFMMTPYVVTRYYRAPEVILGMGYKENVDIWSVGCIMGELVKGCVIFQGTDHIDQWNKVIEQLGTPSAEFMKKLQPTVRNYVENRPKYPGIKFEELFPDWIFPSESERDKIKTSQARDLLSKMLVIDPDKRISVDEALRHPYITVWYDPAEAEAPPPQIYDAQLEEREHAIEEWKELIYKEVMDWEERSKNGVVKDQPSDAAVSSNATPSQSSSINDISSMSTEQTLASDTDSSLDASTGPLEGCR
Method: as §1

c-RAF = biological target: T13, c-RAF (Homo sapiens, UniProt P04049); experiment: as above; conditions: read-out: percentage inhibition of c-RAF
T13 construct: purchased Upstate (KinaseProfiler panel)
Method: as §1

Chain of PDGFRβ (P09619 33-1106, species assumed): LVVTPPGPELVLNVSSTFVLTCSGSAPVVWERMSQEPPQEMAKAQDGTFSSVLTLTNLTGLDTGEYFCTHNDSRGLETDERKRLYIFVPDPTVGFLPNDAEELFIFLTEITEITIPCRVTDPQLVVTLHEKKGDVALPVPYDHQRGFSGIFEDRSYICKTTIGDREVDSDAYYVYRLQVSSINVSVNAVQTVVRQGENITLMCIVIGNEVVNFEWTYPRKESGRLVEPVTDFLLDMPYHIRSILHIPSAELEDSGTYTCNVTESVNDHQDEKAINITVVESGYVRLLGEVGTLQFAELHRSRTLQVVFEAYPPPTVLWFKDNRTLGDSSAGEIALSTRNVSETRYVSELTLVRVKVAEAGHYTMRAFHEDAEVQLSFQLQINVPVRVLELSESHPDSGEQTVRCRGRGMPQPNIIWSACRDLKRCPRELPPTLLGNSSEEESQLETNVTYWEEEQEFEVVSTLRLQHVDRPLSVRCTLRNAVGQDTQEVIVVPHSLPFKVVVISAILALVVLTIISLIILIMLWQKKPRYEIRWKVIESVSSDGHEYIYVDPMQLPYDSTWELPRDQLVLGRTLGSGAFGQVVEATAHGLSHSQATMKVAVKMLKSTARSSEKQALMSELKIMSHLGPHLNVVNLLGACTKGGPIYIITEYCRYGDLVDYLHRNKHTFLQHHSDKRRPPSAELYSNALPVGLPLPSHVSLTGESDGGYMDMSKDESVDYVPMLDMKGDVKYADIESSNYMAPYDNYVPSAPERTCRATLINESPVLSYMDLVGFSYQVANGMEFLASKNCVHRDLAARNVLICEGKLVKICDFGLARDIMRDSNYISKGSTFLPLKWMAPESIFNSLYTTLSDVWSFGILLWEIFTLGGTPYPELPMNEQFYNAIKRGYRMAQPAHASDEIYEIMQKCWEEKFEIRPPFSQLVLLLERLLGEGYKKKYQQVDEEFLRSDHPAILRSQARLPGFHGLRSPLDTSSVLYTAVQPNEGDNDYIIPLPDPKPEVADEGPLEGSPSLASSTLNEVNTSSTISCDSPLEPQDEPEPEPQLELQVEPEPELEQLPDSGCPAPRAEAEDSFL

Q: For Cc1ccc(NC(=O)c2cccc(C(F)(F)F)c2)cc1NC(=O)N(CCCN1CCCC1=O)c1cc(N)ncn1 [Example 215, N-(3-{3-(6-Amino-pyrimidin-4-yl)-3-[3-(2-oxo-pyrrolidin-1-yl)-propyl]-ureido}-4-methyl-phenyl)-3-trifluoromethyl-benzamide], which IC50 (PDGFRβ) is on record?
A: 2 nM

Q: What about the IC50 (FGFR35) of the same molecule?
A: 16 nM

Q: And the inhibition at 10 µM (wild-type Abl)?
A: 99%

Q: What about the inhibition at 10 µM (p70S6K) of the same molecule?
A: 81%

Q: And the inhibition at 10 µM (ROS)?
A: 95%

Q: And the inhibition at 10 µM (MKK6)?
A: 88%

Q: What about the inhibition at 10 µM (lck) of the same molecule?
A: 100%

Q: What about the inhibition at 10 µM (SAPK2α) of the same molecule?
A: 99%

Q: And the inhibition at 10 µM (Tie2)?
A: 100%

Q: And the inhibition at 10 µM (CSK)?
A: 97%

Q: What about the inhibition at 10 µM (SAPK2β) of the same molecule?
A: 99%

Q: And the inhibition at 10 µM (c-SRC)?
A: 100%

Q: What about the inhibition at 10 µM (TrkB) of the same molecule?
A: 99%

Q: What about the inhibition at 10 µM (JNK2α2) of the same molecule?
A: 93%

Q: What about the inhibition at 10 µM (c-RAF) of the same molecule?
A: 99%
